Data: patent US10385096B2, “Pro-Amb reverse turn restricted bioactive peptide analogues” (Council of Scientific & Industrial Research, priority 2016, dated 2019)

Columns and labels:
AT2 receptor [1] = test: neurite outgrowth assay in NG108-15 cells (functional activity at the AT2 receptor); assay type: cell-based; conditions: PD 123319 alone (10 μM), 3 days
Experimental: The functional activity of the analogues of the present invention was evaluated at the AT2 receptor, applying a neurite outgrowth assay in NG108-15 [108CC15] (ATCC® HB12317™) cells. […] The signaling pathways involve a sustained increase in Rap1/BRaf/p42/p44mapk activity and activation of the nitric oxide/guanylyl cyclase/cGMP pathway. NG108-15 cells were treated in absence or presence of Ang II and PD 123319, an AT2 receptor antagonist. The cells were plated at the initial density of 3.6×10^4 cells/petri dish (35 mm) and were cultured for 3 days in the absence (−) or presence (+) of 100 nM Ang II, 1 μM analogue 3, analogue 2 and analogue 1 alone or in combination with 10 μM antagonist PD 123,319 or 100 nM AngII. After 3 days of treatment, the cells were examined under a phase contrast microscope and micrographs were taken. Cells with at least one neurite longer than a cell body were counted as a positive neurite outgrowth. Antagonistic effect was established through co-incubation with Ang II resulting in reduced Ang II-induced neurite outgrowth, verifying blockage of the AT2 receptor. […] The number of cells with neurites was expressed as the percentage of the total number in the micrographs (at least 260 cells according to the experiment). […]
NG108-15 [108CC15] […] Cells with at least one neurite longer than a cell body were counted as positive for neurite outgrowth. […]

AT2 receptor [2] = conditions: 3-day treatment, undifferentiated NG108-15 cells; reported by Blankley et al; cited from earlier work

Compound: Cc1cc(Cn2cnc3c2C[C@@H](C(=O)O)N(C(=O)C(c2ccccc2)c2ccccc2)C3)ccc1N(C)C [PD 123319]
- cell morphology compared to untreated cells (AT2 receptor [1]): did not alter the morphology

Compound: Asp-Arg-Val-Tyr-Ile-His-Pro-Phe (DRVYIHPF) [Ang II, octapeptide, endogenous substrate for AT1 and AT2 receptors]
- neurite outgrowth in NG108-15 cells (earlier reported) (AT2 receptor [2]): induces neurite outgrowth

Compound: CGP-42112A
- neurite outgrowth in NG108-15 cells (earlier reported) (AT2 receptor [2]): induces neurite outgrowth
